Measured values taken from US10251395B2, “Substituted furano-/thienocycloalkylamino-2-pyrimidine derivatives and use thereof for controlling undesired plant growth” (Bayer CropScience Aktiengesellschaft, priority 2015, dated 2019).

Key:
Type in all cases: in vivo
[1] = tested on: Matricaria inodora; assay: Pre-emergence herbicidal effect; conditions: scored visually after 3 weeks
In short: (§1)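 After seeds are covered with sandy loam soil, the formulated compound is sprayed onto the soil surface as an aqueous suspension or emulsion containing 0.2% wetting agent. Three weeks later in the greenhouse, damage is rated by eye from 0% (like controls) to 100% (dead).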

[2] = tested on: Avena fatua; assay: Pre-emergence herbicidal effect; conditions: Dosage 320 g/ha, scored visually after 3 weeks
In short: as §1

[3] = tested on: Stellaria media; assay: Pre-emergence herbicidal effect; conditions: scored visually after 3 weeks
In short: as §1

[4] = tested on: Viola tricolor; assay: Pre-emergence herbicidal effect; conditions: scored visually after 3 weeks
In short: as §1

[5] = tested on: Amaranthus retroflexus; assay: Pre-emergence herbicidal effect; conditions: scored visually after 3 weeks
In short: as §1

[6] = tested on: Alopecurus myosuroides; assay: Pre-emergence herbicidal effect; conditions: scored visually after 3 weeks
In short: as §1

[7] = tested on: Lolium multiflorum; assay: Pre-emergence herbicidal effect; conditions: scored visually after 3 weeks
In short: as §1

[8] = tested on: Setaria viridis; assay: Pre-emergence herbicidal effect; conditions: scored visually after 3 weeks
In short: as §1

[9] = tested on: Veronica persica; assay: Pre-emergence herbicidal effect; conditions: scored visually after 3 weeks
In short: as §1

[10] = tested on: Echinochloa crus-galli; assay: Pre-emergence herbicidal effect; conditions: scored visually after 3 weeks
In short: as §1

[11] = tested on: Polygonum convolvulus; assay: Post-emergence herbicidal effect; conditions: assessed visually after about 3 weeks vs untreated controls
In short: (§2)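 Action, expressed in percent from 0 (like controls) to 100 (plants died), is read by eye about 3 weeks after foliar application. Applications use formulated product in water at 600–800 L/ha on one-leaf-stage plants sown in sandy loam.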

[12] = tested on: Stellaria media; assay: Post-emergence herbicidal effect; conditions: assessed visually after about 3 weeks vs untreated controls
In short: as §2

[13] = tested on: Viola tricolor; assay: Post-emergence herbicidal effect; conditions: assessed visually after about 3 weeks vs untreated controls
In short: as §2

[14] = tested on: Lolium multiflorum; assay: Post-emergence herbicidal effect; conditions: assessed visually after about 3 weeks vs untreated controls
In short: as §2

[15] = tested on: Setaria viridis; assay: Post-emergence herbicidal effect; conditions: assessed visually after about 3 weeks vs untreated controls
In short: as §2

[16] = tested on: Echinochloa crus-galli; assay: Post-emergence herbicidal effect; conditions: 320 g/ha, assessed visually after about 3 weeks vs untreated controls
In short: as §2

[17] = tested on: Polygonum convolvulus; assay: Pre-emergence herbicidal effect; conditions: scored visually after 3 weeks
In short: as §1

[18] = tested on: Matricaria inodora; assay: Post-emergence herbicidal effect; conditions: assessed visually after about 3 weeks vs untreated controls
In short: as §2

[19] = tested on: Ipomoea purpurea; assay: Post-emergence herbicidal effect; conditions: assessed visually after about 3 weeks vs untreated controls
In short: as §2

[20] = tested on: Amaranthus retroflexus; assay: Post-emergence herbicidal effect; conditions: assessed visually after about 3 weeks vs untreated controls
In short: as §2

[21] = tested on: Veronica persica; assay: Post-emergence herbicidal effect; conditions: assessed visually after about 3 weeks vs untreated controls
In short: as §2

[22] = tested on: Abutilon theophrasti; assay: Post-emergence herbicidal effect; conditions: assessed visually after about 3 weeks vs untreated controls
In short: as §2

[23] = tested on: Alopecurus myosuroides; assay: Post-emergence herbicidal effect; conditions: 320 g/ha, assessed visually after about 3 weeks vs untreated controls
In short: as §2

[24] = tested on: Abutilon theophrasti; assay: Pre-emergence herbicidal effect; conditions: Dosage 320 g/ha, scored visually after 3 weeks
In short: as §1

Row | SMILES | MATIN pre-emergence efficacy (herbicidal activity) ([1]; Dosage 80 g/ha) | MATIN pre-emergence efficacy (herbicidal activity) ([1]; Dosage 320 g/ha) | AVEFA pre-emergence efficacy (herbicidal activity) [2] | STEME pre-emergence efficacy (herbicidal activity) ([3]; Dosage 80 g/ha) | STEME pre-emergence efficacy (herbicidal activity) ([3]; Dosage 320 g/ha) | VIOTR pre-emergence efficacy (herbicidal activity) ([4]; Dosage 80 g/ha) | VIOTR pre-emergence efficacy (herbicidal activity) ([4]; Dosage 320 g/ha) | AMARE pre-emergence efficacy (herbicidal activity) ([5]; Dosage 80 g/ha) | AMARE pre-emergence efficacy (herbicidal activity) ([5]; Dosage 320 g/ha) | ALOMY pre-emergence efficacy (herbicidal activity) ([6]; Dosage 320 g/ha) | SETVI pre-emergence efficacy (herbicidal activity) ([8]; Dosage 80 g/ha) | SETVI pre-emergence efficacy (herbicidal activity) ([8]; Dosage 320 g/ha) | VERPE pre-emergence efficacy (herbicidal activity) ([9]; Dosage 320 g/ha) | post-emergence efficacy STEME ([12]; 80 g/ha) | post-emergence efficacy STEME ([12]; 320 g/ha) | post-emergence efficacy VIOTR ([13]; 320 g/ha) | post-emergence efficacy SETVI ([15]; 320 g/ha) | post-emergence efficacy ECHCG [16] | POLCO pre-emergence efficacy (herbicidal activity) ([17]; Dosage 320 g/ha) | post-emergence efficacy PHBPU ([19]; 320 g/ha) | further results
1 | Nc1nc(NC2CCc3ccsc32)ncc1C(F)(F)F (racemic) [compound 29] | 100% | 100% | 100% | 100% | 100% | 100% | 100% | 60% | 100% | 100% | 90% | 100% | 90% | 90% | 100% | 90% | 100% | 100% | – | – | LOLMU pre-emergence efficacy (herbicidal activity) ([7]; Dosage 320 g/ha): 100%; ECHCG pre-emergence efficacy (herbicidal activity) ([10]; Dosage 320 g/ha): 100%; post-emergence efficacy POLCO ([11]; 320 g/ha): 90%; post-emergence efficacy VIOTR ([13]; 80 g/ha): 80%; post-emergence efficacy LOLMU ([14]; 320 g/ha): 80%; post-emergence efficacy SETVI ([15]; 80 g/ha): 90%
2 | Cc1cc2c(s1)CCCC2Nc1ncc(SC(F)(F)F)c(C)n1 (racemic) [compound 80] | 70% | 90% | 60% | 100% | 100% | 90% | 100% | 100% | 100% | 70% | 100% | 100% | 100% | 100% | 100% | 100% | – | 70% | 100% | 100% | POLCO pre-emergence efficacy (herbicidal activity) ([17]; Dosage 80 g/ha): 100%; VERPE pre-emergence efficacy (herbicidal activity) ([9]; Dosage 80 g/ha): 100%; post-emergence efficacy MATIN ([18]; 80 g/ha): 70%; post-emergence efficacy MATIN ([18]; 320 g/ha): 90%; post-emergence efficacy POLCO ([11]; 320 g/ha): 60%; post-emergence efficacy PHBPU ([19]; 80 g/ha): 90%; post-emergence efficacy VIOTR ([13]; 80 g/ha): 100%; post-emergence efficacy AMARE ([20]; 80 g/ha): 100%; post-emergence efficacy AMARE ([20]; 320 g/ha): 100%; post-emergence efficacy LOLMU ([14]; 80 g/ha): 70%; post-emergence efficacy LOLMU ([14]; 320 g/ha): 90%; post-emergence efficacy VERPE ([21]; 80 g/ha): 90%; post-emergence efficacy VERPE ([21]; 320 g/ha): 100%; post-emergence efficacy ABUTH ([22]; 80 g/ha): 80%; post-emergence efficacy ABUTH ([22]; 320 g/ha): 90%
3 | C/C(=N\O)c1cnc(NC2CCCc3sc(Cl)cc32)nc1C (racemic) [compound 260] | 100% | 100% | 90% | 100% | 100% | 100% | 100% | 100% | 100% | 90% | 50% | 100% | 100% | 80% | 100% | 90% | 100% | 100% | 100% | 90% | POLCO pre-emergence efficacy (herbicidal activity) ([17]; Dosage 80 g/ha): 80%; ALOMY pre-emergence efficacy (herbicidal activity) ([6]; Dosage 80 g/ha): 70%; LOLMU pre-emergence efficacy (herbicidal activity) ([7]; Dosage 80 g/ha): 50%; LOLMU pre-emergence efficacy (herbicidal activity) ([7]; Dosage 320 g/ha): 100%; VERPE pre-emergence efficacy (herbicidal activity) ([9]; Dosage 80 g/ha): 100%; ECHCG pre-emergence efficacy (herbicidal activity) ([10]; Dosage 320 g/ha): 100%; post-emergence efficacy MATIN ([18]; 80 g/ha): 70%; post-emergence efficacy MATIN ([18]; 320 g/ha): 90%; post-emergence efficacy POLCO ([11]; 80 g/ha): 60%; post-emergence efficacy POLCO ([11]; 320 g/ha): 60%; post-emergence efficacy PHBPU ([19]; 80 g/ha): 70%; post-emergence efficacy VIOTR ([13]; 80 g/ha): 70%; post-emergence efficacy AMARE ([20]; 80 g/ha): 90%; post-emergence efficacy AMARE ([20]; 320 g/ha): 90%; post-emergence efficacy LOLMU ([14]; 320 g/ha): 70%; post-emergence efficacy VERPE ([21]; 320 g/ha): 100%; post-emergence efficacy ABUTH ([22]; 80 g/ha): 80%; post-emergence efficacy ABUTH ([22]; 320 g/ha): 90%
4 | Cc1cc2c(s1)CCCC2Nc1nc(N)c(-c2cncc(Cl)c2)c(C(F)F)n1 (racemic) [compound 300] | 80% | 90% | – | 80% | 100% | – | 100% | – | 100% | – | – | 70% | – | 60% | 90% | – | – | – | – | 60% | post-emergence efficacy AMARE ([20]; 320 g/ha): 90%; post-emergence efficacy ALOMY [23]: 70%
5 | Cc1cc2c(s1)CCCC2Nc1nc(N)c(Br)c(C(F)F)n1 (racemic) [compound 314] | 90% | – | 60% | 100% | 100% | 100% | 100% | 90% | – | 90% | 100% | 100% | 100% | – | 50% | 60% | 60% | 60% | 100% | 90% | POLCO pre-emergence efficacy (herbicidal activity) ([17]; Dosage 80 g/ha): 100%; ALOMY pre-emergence efficacy (herbicidal activity) ([6]; Dosage 80 g/ha): 60%; ABUTH pre-emergence efficacy (herbicidal activity) [24]: 60%; ECHCG pre-emergence efficacy (herbicidal activity) ([10]; Dosage 80 g/ha): 70%; ECHCG pre-emergence efficacy (herbicidal activity) ([10]; Dosage 320 g/ha): 90%; post-emergence efficacy ABUTH ([22]; 320 g/ha): 70%
6 | Cc1cc2c(s1)CCCC2Nc1nc(N)c(C#N)c(C(C)F)n1 (racemic) [compound 320] | – | 100% | – | – | 100% | – | 100% | – | 100% | – | – | 100% | 100% | – | 60% | 100% | 60% | – | 100% | – | post-emergence efficacy AMARE ([20]; 320 g/ha): 60%; post-emergence efficacy ALOMY [23]: 80%; post-emergence efficacy VERPE ([21]; 320 g/ha): 100%; post-emergence efficacy ABUTH ([22]; 320 g/ha): 80%
